These results are taken from ChEMBL document CHEMBL5036370, “Indole-Containing Pyrazino[2,1-b]quinazoline-3,6-diones Active against Plasmodium and Trypanosomatids” (ACS Med Chem Lett, 2022).

A word on the IC50: it is the midpoint of a concentration-inhibition curve. As a reminder, the CC50 is the concentration at which the toxic effect on the cells reaches its halfway point.

The structures appear in SMILES notation. Activity calls are given as the source filed them. The rule behind the calls is not given here. Some results are limits rather than exact numbers.

The subject of one series is V79. The series is described as follows: Cytotoxicity against Chinese hamster V79 cells measured after 24 hrs by MTT assay. Type of series: cell-based, Cricetulus griseus. The following applies: v79, 24 h.
Series [1] can be described thus: Selectivity index, ratio of CC50 for cytotoxicity against human THP-1 cells to IC50 for antitrypanosomal activity against bloodstream form of Trypanosoma brucei Lister 427. Type of series: toxicity, cell-based. The following applies: read-out: Ratio CC50/IC50.
In series [2] the test system is Trypanosoma brucei. As to the kind of experiment: Antitrypanosomal activity against bloodstream form of Trypanosoma brucei Lister 427 assessed as parasite growth inhibition incubated for 72 hrs by resazurin staining based assay. Type of series: functional, organism-based. The following applies: Lister 427, 72 h. On the technique in general: The colour change of resazurin is a common sign of viable cells or microbes.

A further series relates to Plasmodium falciparum. As to the kind of experiment: Antimalarial activity against CQ-sensitive Plasmodium falciparum 3D7 assessed as parasite growth inhibition incubated for 48 hrs by SYBR Green I dye based fluorescence assay. Type of series: functional, organism-based. The following applies: 3D7, 48 h.
The test system of series [3] is Leishmania infantum. As to the kind of experiment: Antileishmanial activity against axenic amastigote stage of Leishmania infantum infected in THP-1 cells assessed as reduction in parasite growth at 10 uM incubated for 72 hrs by luminescence analysis. Type of series: functional, organism-based.
The nature of series [4]: Cytotoxicity against human THP-1 cells assessed as reduction in cell viability measured after 72 hrs by MTT assay. Type of series: cell-based.
Series [5] concerns Trypanosoma brucei. As to the kind of experiment: Antitrypanosomal activity against bloodstream form of Trypanosoma brucei Lister 427 assessed as parasite growth inhibition at 10 uM incubated for 72 hrs by resazurin staining based assay. Type of series: functional, organism-based.
Series [6] concerns Leishmania infantum. The series is described as follows: Antileishmanial activity against axenic amastigote stage of Leishmania infantum infected in THP-1 cells assessed as reduction in parasite growth incubated for 72 hrs by luminescence analysis. Type of series: functional, organism-based. The following applies: THP-1, 72 h.
Series [7] in a line: Selectivity index, ratio of CC50 for cytotoxicity against human THP-1 cells to IC50 for antileishmanial activity against axenic amastigote stage of Leishmania infantum infected in THP-1 cells. Type of series: toxicity, cell-based. The following applies: read-out: Ratio CC50/IC50.

For the compound `O=C1N[C@@H](Cc2ccc(OCc3ccccc3)cc2)c2nc3cc(Cl)c(Cl)cc3c(=O)n2[C@@H]1Cc1c[nH]c2ccccc12`, in the series with V79, the LD50 result is listed as “Not Active”. For the same compound, in series [1], the selectivity ratio is more than 25.6. Besides, the IC50 in the series on Trypanosoma brucei [2] came out at 3.9 µM; in the series on Plasmodium falciparum it was 4 µM. The inhibition result with Leishmania infantum [3] was “inactive”. Further, the CC50 at 72 h in series [4] is more than 100 µM.

With `CC[C@H](C)[C@@H]1NC(=O)[C@@H](Cc2c[nH]c3ccccc23)n2c1nc1ccccc1c2=O`, the LD50 result with V79 is listed as “Not Active”. Also, in the series with Plasmodium falciparum, the IC50 is more than 10 µM.

As to `CC(C)C[C@@H]1NC(=O)[C@H](Cc2c[nH]c3ccccc23)n2c1nc1ccccc1c2=O`, the LD50 entry in the series on V79 was “Not Active”. For the same compound, the half-maximal inhibitory concentration (IC50) in the series on Plasmodium falciparum is more than 10 µM. Also, the inhibition result in the series with Leishmania infantum [3] and in the series with Trypanosoma brucei [5] was “inactive” in each case. In addition, the CC50 at 72 h in series [4] worked out at 50 µM.

For `CC[C@H](C)[C@@H]1NC(=O)[C@@H](Cc2c[nH]c3ccccc23)n2c1nc1ccc(Cl)cc1c2=O`, the LD50 result in the series on V79 was “Not Active”. Also, the IC50 with Plasmodium falciparum was more than 10 µM.

Turning to `CCCCCCCCCCCCCCCCOP(=O)([O-])OCC[N+](C)(C)C` [MILTEFOSINE], the IC50 in the series with Leishmania infantum [6] was 1 µM. For the same compound, the selectivity ratio in series [7] amounted to 28.8. Besides, in [4], the half-maximal cytotoxic concentration (CC50) at 72 h amounted to 28.8 µM. Also, in the series with Trypanosoma brucei [5], the inhibition result is “inactive”.

On to `COc1ccc2nc3n(c(=O)c2c1)[C@H](Cc1c[nH]c2ccccc12)C(=O)N[C@H]3CC(C)C`, for which the LD50 result with V79 is listed as “Not Active”. In addition, the IC50 in the series on Plasmodium falciparum was more than 10 µM. Moreover, the inhibition entry with Leishmania infantum [3] and in the series with Trypanosoma brucei [5] was “inactive” in each case. Moreover, the cytotoxic concentration (CC50) at 72 h in [4] is more than 100 µM.

Turning to `CC(C)[C@@H]1NC(=O)[C@H](Cc2c[nH]c3ccccc23)n2c1nc1ccccc1c2=O`, in the series with V79, the LD50 entry is “Not Active”. Moreover, in [1], the selectivity ratio is more than 21.7. Besides, the results for the IC50 in the series with Trypanosoma brucei [2] and in the series on Plasmodium falciparum were 4.6 µM and more than 10 µM, respectively. In addition, in the series with Leishmania infantum [3], the inhibition entry is “inactive”. For the same compound, the half-maximal cytotoxic concentration (CC50) at 72 h in series [4] was more than 100 µM.

As for `O=C1N[C@@H](Cc2c[nH]c3ccccc23)c2nc3ccccc3c(=O)n2[C@@H]1Cc1c[nH]c2ccccc12`, the LD50 entry in the series on V79 is listed as “Not Active”. Moreover, in the series with Plasmodium falciparum, the IC50 is more than 10 µM.

In the case of `CC(C)C[C@H]1NC(=O)[C@H](Cc2c[nH]c3ccccc23)n2c1nc1ccccc1c2=O`, the LD50 result in the series on V79 is on record as “Not Active”. Moreover, the half-maximal inhibitory concentration (IC50) in the series on Plasmodium falciparum stood at 2 µM. In addition, the inhibition entry with Leishmania infantum [3] and in the series with Trypanosoma brucei [5] was “inactive” throughout. Further, the CC50 at 72 h in series [4] was more than 100 µM.

Consider `CC(C)[C@H]1NC(=O)[C@H](Cc2c[nH]c3ccccc23)n2c1nc1ccccc1c2=O`, for which the LD50 entry with V79 was “Not Active”. The IC50 in the series with Plasmodium falciparum was more than 10 µM. Besides, the inhibition entry in the series with Leishmania infantum [3] and with Trypanosoma brucei [5] was “inactive” each time. In addition, the CC50 at 72 h in series [4] was more than 100 µM.

In the case of `Cc1ccc2nc3n(c(=O)c2c1)[C@H](Cc1c[nH]c2ccccc12)C(=O)N[C@H]3CC(C)C`, the LD50 result with V79 is recorded as “Not Active”. Moreover, the IC50 with Plasmodium falciparum was more than 10 µM. Further, the inhibition entry in the series with Leishmania infantum [3] and with Trypanosoma brucei [5] was “inactive” in each case. Also, the CC50 at 72 h in [4] was more than 100 µM.

Regarding `CC(C)C[C@@H]1NC(=O)[C@@H](Cc2c[nH]c3ccccc23)n2c1nc1ccc(Cl)cc1c2=O`, in the series on V79, the LD50 result is “Not Active”. The IC50 in the series on Plasmodium falciparum was more than 10 µM.

As for `C[C@H]1NC(=O)[C@@H](Cc2c[nH]c3ccccc23)n2c1nc1ccccc1c2=O` [FUMIQUINAZOLINE G], in the series with V79, the LD50 result is listed as “Not Active”. In the series with Plasmodium falciparum, the half-maximal inhibitory concentration (IC50) was 3.68 µM.

On to `CSCC[C@@H]1NC(=O)[C@@H](Cc2c[nH]c3ccccc23)n2c1nc1ccccc1c2=O`, for which the LD50 result in the series on V79 is recorded as “Not Active”. Besides, in the series with Plasmodium falciparum, the IC50 was more than 10 µM.

In the case of `CC(C)C[C@@H]1NC(=O)[C@@H](Cc2c[nH]c3ccccc23)n2c1nc1ccc(O)cc1c2=O`, the LD50 entry with V79 is listed as “Not Active”. Also, the selectivity ratio in series [1] was more than 11.6. Besides, the IC50 in the series with Trypanosoma brucei [2] is 8.6 µM; with Plasmodium falciparum it was 0.73 µM. The inhibition entry in the series on Leishmania infantum [3] was “inactive”. Also, the half-maximal cytotoxic concentration (CC50) at 72 h in series [4] is more than 100 µM.

Turning to `CC(C)C[C@H]1NC(=O)[C@@H](Cc2c[nH]c3ccccc23)n2c1nc1ccccc1c2=O`, the LD50 result in the series on V79 is recorded as “Not Active”. Further, the selectivity ratio was determined as 65.7 in series [1] and 9.6 in series [7]. The concentration for half-maximal inhibition (IC50) in the series on Trypanosoma brucei [2] came to 0.38 µM; in the series on Plasmodium falciparum it was 0.47 µM; in the series with Leishmania infantum [6] it was 2.6 µM. Besides, in series [4], the CC50 at 72 h amounted to 25 µM.

For `CC(C)C[C@@H]1NC(=O)[C@@H](Cc2c[nH]c3ccccc23)n2c1nc1cc(-c3nnnn3C)ccc1c2=O`, in the series with V79, the LD50 result is reported as “Not Active”. For the same compound, in the series on Plasmodium falciparum, the IC50 worked out at 1.02 µM. For the same compound, the inhibition entry in the series with Leishmania infantum [3] and in the series with Trypanosoma brucei [5] was “inactive” each time. Further, the 50% cytotoxic concentration (CC50) at 72 h in series [4] is more than 50 µM.

Turning to `CC(C)C[C@@H]1NC(=O)[C@@H](Cc2c[nH]c3ccccc23)n2c1nc1cc(I)c(I)cc1c2=O`, in the series on V79, the LD50 entry is “Not Active”. Moreover, the half-maximal inhibitory concentration (IC50) with Plasmodium falciparum was more than 10 µM.

`N=C(N)c1ccc(OCCCCCOc2ccc(C(=N)N)cc2)cc1` [PENTAMIDINE]: the inhibition entry in the series with Leishmania infantum [3] is “inactive”. Also, the half-maximal cytotoxic concentration (CC50) at 72 h in series [4] is more than 10 µM.

For the compound `CC[C@H](C)[C@@H]1NC(=O)[C@@H](Cc2c[nH]c3ccccc23)n2c1nc1cc(Cl)c(Cl)cc1c2=O`, the LD50 entry with V79 is on record as “Not Active”. In [1], the selectivity ratio came out at 8.6. Moreover, the IC50 in the series with Trypanosoma brucei [2] worked out at 5.8 µM; with Plasmodium falciparum it was 1.51 µM. The inhibition entry with Leishmania infantum [3] was “inactive”. Further, the CC50 at 72 h in series [4] came to 50 µM.

With `CC(C)C[C@@H]1NC(=O)[C@@H](Cc2c[nH]c3ccccc23)n2c1nc1ncccc1c2=O`, in the series on V79, the LD50 entry is listed as “Not Active”. Also, in the series with Plasmodium falciparum, the IC50 is 3.76 µM. In addition, the inhibition entry in the series with Leishmania infantum [3] and with Trypanosoma brucei [5] was “inactive” throughout. In [4], the CC50 at 72 h is more than 100 µM.

Regarding `CC(C)[C@H]1NC(=O)[C@@H](Cc2c[nH]c3ccccc23)n2c1nc1ccccc1c2=O`, in the series with V79, the LD50 result is reported as “Not Active”. In addition, the selectivity ratio in series [1] is more than 14.1. Besides, the 50% inhibitory concentration (IC50) in the series with Trypanosoma brucei [2] is 7.1 µM; in the series with Plasmodium falciparum it was 0.15 µM. For the same compound, in the series on Leishmania infantum [3], the inhibition entry was “inactive”. In addition, in series [4], the half-maximal cytotoxic concentration (CC50) at 72 h was more than 100 µM.

For the compound `O=C1N[C@H](Cc2ccc(O)cc2)c2nc3ccccc3c(=O)n2[C@H]1Cc1c[nH]c2ccccc12`, the LD50 result with V79 was “Not Active”. The half-inhibitory concentration (IC50) in the series on Plasmodium falciparum amounted to 4.18 µM. Also, the inhibition result in the series on Leishmania infantum [3] and in the series on Trypanosoma brucei [5] was “inactive” throughout. The CC50 at 72 h in series [4] was more than 100 µM.

Consider `CC(C)C[C@@H]1NC(=O)[C@@H](Cc2c[nH]c3ccccc23)n2c1nc1cnccc1c2=O`, for which the LD50 result in the series on V79 was “Not Active”. The IC50 in the series on Plasmodium falciparum was found to be 4 µM. The inhibition entry in the series on Leishmania infantum [3] and with Trypanosoma brucei [5] was “inactive” in each case. The CC50 at 72 h in series [4] is more than 100 µM.

Take `O=C1N[C@H](Cc2ccc(OCc3ccccc3)cc2)c2nc3ccccc3c(=O)n2[C@H]1Cc1c[nH]c2ccccc12`: the LD50 entry in the series with V79 is listed as “Not Active”. Moreover, the selectivity ratio in series [1] is more than 62.5. Also, the IC50 in the series with Trypanosoma brucei [2] is 1.6 µM; in the series on Plasmodium falciparum it was more than 10 µM. In addition, the inhibition result with Leishmania infantum [3] was “inactive”. For the same compound, in [4], the CC50 at 72 h is more than 100 µM.
